SMILES strings stand for the structures. Where “and” joins values, the source holds several entries; their conditions need not be identical. Identical values can stand only once.

This test has as its target T1, WEE1 (Homo sapiens, UniProt P30291).
T1 construct: Drug treated cells are fixed and stained with propidium iodide (PI); endogenous in cells
The experiment in a line: Guava flow cytometry cell cycle assay (DNA content per cell, propidium iodide). The format is cell-based. The settings on record: for WEE1 Guava MEC Guava MEC: single agent, unit assumed; for WEE1 Guava MEC with 20 nM GEM: in µM (unit assumed). The text has this:
In this example, compounds described herein were subject to an assay that detects changes the phases of the cell cycle upon drug treatment, permitting the identification of drugs that affect cell proliferation in a specific manner. For example, problematic DNA replication causes the percentage of cells in S phase to increase. Thus, quantification of cells in S phase permits identification of drugs that cause defects in DNA replication. Similarly, drugs that selectively defects in progression through G2/M can also be identified. Moreover, synergy between assayed drugs and known cell cycle regulators can be determined, as exemplified by the effect of ATR inhibition when combined with agents that slow DNA replication, which causes replication fork collapse into DSBs and complete loss of DNA synthesis. Two novel drugs can also be combined to quantify synergistic effects on specific cell cycle phases.
The assay operates by the quantification of DNA content per cell by flow cytometry. Cells are assessed for effects on cell cycle using a Guava EasyCyte™ flow cytometer (Austin, TX). Drug treated cells are fixed and stained with propidium iodide (PI) and resuspended in phosphate-buffered saline containing the PI staining buffer. During flow cytometry, PI is excited at 528 nm and is detected in a 610/20 bandpass. Readout of the […] is optical density of DNA-staining dye. The assay generates a histogram showing count of cells by amount of DNA, which is an indicator of place in the cell cycle. This rapid assay detects relative changes in the cell cycle upon drug treatment upon comparison vehicle-treated and single-agent controls for detection of combinatorial interactions. See, Table 4.
In general terms: In flow cytometry, cells or beads pass a laser one at a time.

T1 sequence (P30291 whole entry): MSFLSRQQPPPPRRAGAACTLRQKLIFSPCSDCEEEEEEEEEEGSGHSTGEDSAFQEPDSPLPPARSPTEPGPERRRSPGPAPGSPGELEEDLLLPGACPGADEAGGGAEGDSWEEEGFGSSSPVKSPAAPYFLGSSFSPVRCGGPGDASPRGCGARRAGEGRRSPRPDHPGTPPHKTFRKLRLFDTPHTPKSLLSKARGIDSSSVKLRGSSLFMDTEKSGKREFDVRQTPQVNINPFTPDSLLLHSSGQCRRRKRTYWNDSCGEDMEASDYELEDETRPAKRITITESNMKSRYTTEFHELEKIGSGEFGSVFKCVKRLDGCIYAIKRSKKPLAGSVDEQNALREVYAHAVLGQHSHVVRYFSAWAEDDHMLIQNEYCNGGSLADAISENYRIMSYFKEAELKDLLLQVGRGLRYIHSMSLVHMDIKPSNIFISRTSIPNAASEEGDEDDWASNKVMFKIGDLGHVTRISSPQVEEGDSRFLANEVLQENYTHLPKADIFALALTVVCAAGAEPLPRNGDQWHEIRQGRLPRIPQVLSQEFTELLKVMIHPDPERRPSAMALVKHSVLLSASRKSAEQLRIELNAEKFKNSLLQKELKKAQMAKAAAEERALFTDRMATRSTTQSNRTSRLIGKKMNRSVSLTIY

Consider `Cc1cn(-c2c(Cl)cccc2Cl)c(=O)c2cnc(Nc3cnn(C4CCN(C)CC4)c3)nc12` [Compound P2, 6-(2,6-dichlorophenyl)-8-methyl-2-[[1-(1-methyl-4-piperidyl)pyrazol-4-yl]amino]pyrido[4,3-d]pyrimidin-5-one], for which the WEE1 Guava MEC Guava MEC was determined as 5 µM and the “WEE1 Guava MEC with 20 nM GEM” value is given as 1.25.
Regarding `O=c1c2cnc(Nc3cnn(C4CCNCC4)c3)nc2c(C2CC2)cn1-c1c(Cl)cccc1Cl` [Compound P3, 8-cyclopropyl-6-(2,6-dichlorophenyl)-2-[[1-(4-piperidyl)pyrazol-4-yl]amino]pyrido[4,3-d]pyrimidin-5-one], the WEE1 Guava MEC Guava MEC worked out at 2.5 µM and the “WEE1 Guava MEC with 20 nM GEM” value turned out to be 0.625.
The corresponding values for `CCc1cn(-c2c(Cl)cccc2Cl)c(=O)c2cnc(Nc3cnn(C4CCN(C)CC4)c3)nc12` [Compound P5, 6-(2,6-dichlorophenyl)-8-ethyl-2-((1-(1-methylpiperidin-4-yl)-1H-pyrazol-4-yl)amino)pyrido[4,3-d]pyrimidin-5(6H)-one] are greater than 5 µM and 1.25.
Take `C=C(C)c1cn(-c2c(Cl)cccc2Cl)c(=O)c2cnc(Nc3cnn(C4CCNCC4)c3)nc12` [Compound P6, 6-(2,6-dichlorophenyl)-2-((1-(piperidin-4-yl)-1H-pyrazol-4-yl)amino)-8-(prop-1-en-2-yl)pyrido[4,3-d]pyrimidin-5(6H)-one]: the WEE1 Guava MEC Guava MEC was 5 µM and the “WEE1 Guava MEC with 20 nM GEM” value is recorded as 1.25.
The corresponding values for `C=C(C)c1cn(-c2c(Cl)cccc2Cl)c(=O)c2cnc(Nc3cnn(C4CCN(C)CC4)c3)nc12` [Compound P7, 6-(2,6-dichlorophenyl)-8-isopropenyl-2-[[1-(1-methyl-4-piperidyl)pyrazol-4-yl]amino]pyrido[4,3-d]pyrimidin-5-one] are 2.5 µM and 1.25.
For `CC(C)c1cn(-c2c(Cl)cccc2Cl)c(=O)c2cnc(Nc3cnn(C4CCNCC4)c3)nc12` [Compound P8, 6-(2,6-dichlorophenyl)-8-isopropyl-2-[[1-(4-piperidyl)pyrazol-4-yl]amino]pyrido[4,3-d]pyrimidin-5-one], in that order: 5 µM and 1.25.
For `CC(C)c1cn(-c2c(Cl)cccc2Cl)c(=O)c2cnc(Nc3cnn(C4CCN(C)CC4)c3)nc12` [Compound P9, 6-(2,6-dichlorophenyl)-8-isopropyl-2-[[1-(1-methyl-4-piperidyl)pyrazol-4-yl]amino]pyrido[4,3-d]pyrimidin-5-one], in that order: 5 µM and 1.25.
Take `CN1CCCC(n2cc(Nc3ncc4c(=O)n(-c5c(Cl)cccc5Cl)cc(Br)c4n3)cn2)C1` (centres unmarked) [Compound P12, 8-bromo-6-(2,6-dichlorophenyl)-2-[[1-(1-methyl-3-piperidyl)pyrazol-4-yl]amino]pyrido[4,3-d]pyrimidin-5-one]: the WEE1 Guava MEC Guava MEC is greater than 1.25 µM and the “WEE1 Guava MEC with 20 nM GEM” value turned out to be 0.625.
Take `O=c1c2cnc(Nc3cnn(C4CCCNC4)c3)nc2c(Br)cn1-c1c(Cl)cccc1Cl` (centres unmarked) [Compound P13, 8-bromo-6-(2,6-dichlorophenyl)-2-[[1-(3-piperidyl)pyrazol-4-yl]amino]pyrido[4,3-d]pyrimidin-5-one]: the WEE1 Guava MEC Guava MEC is 0.625 µM and the “WEE1 Guava MEC with 20 nM GEM” value came out at 0.313.
For the molecule `Cc1ccc(Cl)c(-n2cc(Br)c3nc(Nc4cnn(C5CCNCC5)c4)ncc3c2=O)c1Cl` [Compound P14, 8-bromo-6-(2,6-dichloro-3-methyl-phenyl)-2-[[1-(4-piperidyl)pyrazol-4-yl]amino]pyrido[4,3-d]pyrimidin-5-one], the WEE1 Guava MEC Guava MEC is greater than 5 µM and the “WEE1 Guava MEC with 20 nM GEM” value is recorded as 1.25.
For `Cc1ccc(Cl)c(-n2cc(Br)c3nc(Nc4cnn(C5CCN(C)CC5)c4)ncc3c2=O)c1Cl` [Compound P15, 8-bromo-6-(2,6-dichloro-3-methyl-phenyl)-2-[[1-(1-methyl-4-piperidyl)pyrazol-4-yl]amino]pyrido[4,3-d]pyrimidin-5-one], in that order: 5 µM and 1.25.
With `Cc1cc(Cl)c(-n2cc(Br)c3nc(Nc4cnn(C5CCNCC5)c4)ncc3c2=O)c(Cl)c1` [Compound P16, 8-bromo-6-(2,6-dichloro-4-methyl-phenyl)-2-[[1-(4-piperidyl)pyrazol-4-yl]amino]pyrido[4,3-d]pyrimidin-5-one], the WEE1 Guava MEC Guava MEC worked out at 2.5 µM and the “WEE1 Guava MEC with 20 nM GEM” value is reported as 0.625.
Consider `Cc1cc(Cl)c(-n2cc(Br)c3nc(Nc4cnn(C5CCN(C)CC5)c4)ncc3c2=O)c(Cl)c1` [Compound P17, 8-bromo-6-(2,6-dichloro-4-methyl-phenyl)-2-[[1-(1-methyl-4-piperidyl)pyrazol-4-yl]amino]pyrido[4,3-d]pyrimidin-5-one], for which the WEE1 Guava MEC Guava MEC was determined as 2.5 µM and the “WEE1 Guava MEC with 20 nM GEM” value came out at 0.625.
Regarding `O=c1c2cnc(Nc3ccc4c(c3)CNCC43CC3)nc2c(Br)cn1-c1c(Cl)cccc1Cl` [Compound P19, 8-bromo-6-(2,6-dichlorophenyl)-2-(spiro[2,3-dihydro-1H-isoquinoline-4,1′-cyclopropane]-7-ylamino)pyrido[4,3-d]pyrimidin-5-one], the WEE1 Guava MEC Guava MEC is 0.313 µM and the “WEE1 Guava MEC with 20 nM GEM” value is 0.156.
On to `CN1Cc2cc(Nc3ncc4c(=O)n(-c5c(Cl)cccc5Cl)cc(Br)c4n3)ccc2C2(CC2)C1` [Compound P20, 8-bromo-6-(2,6-dichlorophenyl)-2-[(2-methylspiro[1,3-dihydroisoquinoline-4,1′-cyclopropane]-7-yl)amino]pyrido[4,3-d]pyrimidin-5-one], for which the WEE1 Guava MEC Guava MEC stood at 0.313 µM and the “WEE1 Guava MEC with 20 nM GEM” value was 0.156.
For `CN1CCN(c2ccc(Nc3ncc4c(=O)n(-c5c(Cl)cccc5Cl)cc(Br)c4n3)cc2)CC1` [Compound P21, 8-bromo-6-(2,6-dichlorophenyl)-2-[4-(4-methylpiperazin-1-yl)anilino]pyrido[4,3-d]pyrimidin-5-one], the WEE1 Guava MEC Guava MEC came out at 0.625 µM; the “WEE1 Guava MEC with 20 nM GEM” value was 0.313 and 0.625.
As to `CN(C)C1CCc2ccc(Nc3ncc4c(=O)n(-c5c(Cl)cccc5Cl)cc(Br)c4n3)cc21` (centres unmarked) [Compound P22, 8-bromo-6-(2,6-dichlorophenyl)-2-[[3-(dimethylamino)indan-5-yl]amino]pyrido[4,3-d]pyrimidin-5-one], the WEE1 Guava MEC Guava MEC amounted to 2.5 µM and the “WEE1 Guava MEC with 20 nM GEM” value is reported as 1.25.
In the case of `NC1CCc2ccc(Nc3ncc4c(=O)n(-c5c(Cl)cccc5Cl)cc(Br)c4n3)cc21` (centres unmarked) [Compound P23, 2-[(3-aminoindan-5-yl)amino]-8-bromo-6-(2,6-dichlorophenyl)pyrido[4,3-d]pyrimidin-5-one], the WEE1 Guava MEC Guava MEC is 5 µM and the “WEE1 Guava MEC with 20 nM GEM” value worked out at 2.5.
`O=c1c2cnc(Nc3ccc4c(c3)C(O)CC4)nc2c(Br)cn1-c1c(Cl)cccc1Cl` (centres unmarked) [Compound P24, 8-bromo-6-(2,6-dichlorophenyl)-2-[(3-hydroxyindan-5-yl)amino]pyrido[4,3-d]pyrimidin-5-one]: the WEE1 Guava MEC Guava MEC came to 5 µM and the “WEE1 Guava MEC with 20 nM GEM” value came to 1.25.

The values above are taken from US20240254123A1, “PYRIDOPYRIMIDINE DERIVATIVES USEFUL AS WEE1 KINASE INHIBITORS” (APREA THERAPEUTICS, INC., priority 2021, published 2024).
